Experimental data taken from paper PMC6863074 (Journal of medicinal chemistry, 2015).
“Also recorded” adds a separate entry of the source. Marks after values point to notes of the source that are not given here.

Test system: S. aureus ATCC 27660
Assay: not given
Conditions: iv, 2 doses given at 30 min and 7.5 h after infection; cited from earlier work

Molecule	ED50
Oc1ccc(-c2nc(-c3ccc(Oc4ccc(C(F)(F)F)cc4)cc3)no2)cc1 [compound 1]	ED50 = 40 mg/kg^c

Same assay, conditions: po, single dose given at 1 h after infection; cited from earlier work

Molecule	ED50
Oc1ccc(-c2nc(-c3ccc(Oc4ccc(C(F)(F)F)cc4)cc3)no2)cc1 [compound 1]	44^a mg/kg

Test system: not given
Assay: not given
Conditions: antibiotics on the market; cited from earlier work

Molecule	plasma protein binding [%]
CO[C@H]1/C=C/O[C@@]2(C)Oc3c(C)c(O)c4c(O)c(c(/C=N/N5CCN(C)CC5)c(O)c4c3C2=O)NC(=O)/C(C)=C\C=C\[C@H](C)[C@H](O)[C@@H](C)[C@@H](O)[C@@H](C)[C@H](OC(C)=O)[C@@H]1C [rifampicin]	> 91

Same assay, conditions: plasma; cited from earlier work

Molecule	plasma protein binding [%]
CCCCCCCCCC(=O)N[C@@H](Cc1c[nH]c2ccccc12)C(=O)N[C@H](CC(N)=O)C(=O)N[C@@H](CC(=O)O)C(=O)N[C@@H]1C(=O)NCC(=O)N[C@@H](CCCN)C(=O)N[C@@H](CC(=O)O)C(=O)N[C@H](C)C(=O)N[C@@H](CC(=O)O)C(=O)NCC(=O)N[C@H](CO)C(=O)N[C@@H]([C@H](C)CC(=O)O)C(=O)N[C@@H](CC(=O)c2ccccc2N)C(=O)O[C@@H]1C [daptomycin]	> 91
Cc1onc(-c2ccccc2)c1C(=O)N[C@@H]1C(=O)N2[C@@H]1SC(C)(C)[C@@H]2C(=O)O [oxacillin]	> 91
teicoplanin	> 91

Test system: S. aureus ATCC 29213
Assay: MIC determination, S. aureus ATCC 29213
Conditions: S. aureus ATCC 29213 MIC screening; active = MIC ≤ 8 μg/mL

Molecule	antibacterial activity (in words)
Nc1ccc(-c2nc(-c3ccc(Oc4ccccc4)cc3)no2)cc1 [58a]	low MIC values
Nc1ccc(-c2nc(-c3ccc(Oc4ccc(C(F)(F)F)cc4)cc3)no2)cc1 [58b]	low MIC values
Nc1ccc(-c2nc(-c3ccc(Oc4ccc(F)cc4)cc3)no2)cc1 [58c]	no antibiotic activity
Nc1c[nH]nc1-c1nc(-c2ccc(Oc3ccc(C(F)(F)F)cc3)cc2)no1 [64b, 3-(3-(4-(4-(Trifluoromethyl)phenoxy)phenyl)-1,2,4-oxadiazol-5-yl)-1H-pyrazol-4-amine]	tolerated
CC(C)Nc1c[nH]nc1-c1nc(-c2ccc(Oc3ccccc3)cc2)no1 [65a]	active
N#Cc1c[nH]nc1-c1nc(-c2ccc(Oc3ccc(C(F)(F)F)cc3)cc2)no1 [67b]	maintained good activity
OCC#Cc1c[nH]nc1-c1nc(-c2ccc(Oc3ccc(C(F)(F)F)cc3)cc2)no1 [68b]	maintained good activity
Oc1ccc(-c2nc(-c3ccc(Oc4ccc(C(F)(F)F)cc4)cc3)no2)cc1O [69b]	retained activity
Oc1c(F)cc(-c2nc(-c3ccc(Oc4ccc(C(F)(F)F)cc4)cc3)no2)cc1F [71b]	without significant loss of activity
Nc1ccc(-c2nc(-c3ccc(Oc4ccc(C(F)(F)F)cc4)cc3)no2)cc1F [72b]	without significant loss of activity
Nc1c(F)cc(-c2nc(-c3ccc(Oc4ccccc4)cc3)no2)cc1F [73a]	without significant loss of activity
FC(F)(F)c1ccc(Oc2ccc(-c3noc(-c4c[nH]cn4)n3)cc2)cc1 [76b, 5-(1H-Imidazol-4-yl)-3-(4-(4-(trifluoromethyl)phenoxy)phenyl)-1,2,4-oxadiazole]	retained good activity
O=[N+]([O-])c1cc(-c2nc(-c3ccc(Oc4ccc(C(F)(F)F)cc4)cc3)no2)cnc1O [77b]	retained good activity
O=[N+]([O-])c1c[nH]c(-c2nc(-c3ccc(Oc4ccc(C(F)(F)F)cc4)cc3)no2)c1 [78b]	retained good activity
O=[N+]([O-])c1c[nH]c(-c2nc(-c3ccc(Oc4ccc(F)cc4)cc3)no2)c1 [78c]	generally abolish antibacterial activity
Fc1ccc(-c2nc(-c3ccc(Oc4ccccc4)cc3)no2)cc1 [80a]	loss of activity
FC(F)(F)c1ccc(Oc2ccc(-c3noc(-c4ccc(Br)cc4)n3)cc2)cc1 [81b]	loss of activity
O=[N+]([O-])c1ccc(-c2nc(-c3ccc(Oc4ccccc4)cc3)no2)cc1 [82a]	loss of activity
O=P(O)(O)c1ccc(-c2nc(-c3ccc(Oc4ccc(F)cc4)cc3)no2)cc1 [84c]	loss of activity; also recorded: attenuate or abrogate activity
NS(=O)(=O)c1ccc(-c2nc(-c3ccc(Oc4ccc(C(F)(F)F)cc4)cc3)no2)cc1 [87b]	failed to show activity; also recorded: attenuate or abrogate activity
NS(=O)(=O)c1ccc(-c2nc(-c3ccc(Oc4ccc(F)cc4)cc3)no2)cc1 [87c]	attenuate or abrogate activity
NC(=O)c1ccc(-c2nc(-c3ccc(Oc4ccc(F)cc4)cc3)no2)cc1 [88c]	failed to show activity; also recorded: attenuate or abrogate activity
O=C(O)c1ccc(-c2nc(-c3ccc(Oc4ccc(F)cc4)cc3)no2)cc1 [89c]	failed to show activity; also recorded: attenuate or abrogate activity
COC(=O)c1ccc(-c2nc(-c3ccc(Oc4ccc(F)cc4)cc3)no2)cc1 [90c]	failed to show activity
O=[N+]([O-])c1cc(-c2nc(-c3ccc(Oc4ccc(F)cc4)cc3)no2)ccc1O [91c]	failed to show activity; also recorded: abolish activity
Nc1cc(-c2nc(-c3ccc(Oc4ccc(F)cc4)cc3)no2)ccc1O [92c]	failed to show activity
COc1cc(-c2nc(-c3ccc(Oc4ccc(C(F)(F)F)cc4)cc3)no2)ccc1O [93b]	failed to show activity; also recorded: abolish activity

Molecule	antibacterial activity (in words)
COc1cc(-c2nc(-c3ccc(Oc4ccccc4)cc3)no2)ccc1N [94a]	abolish activity
Oc1cccc(-c2nc(-c3ccc(Oc4ccccc4)cc3)no2)c1 [95a]	failed to show activity
Oc1cc(-c2nc(-c3ccc(Oc4ccccc4)cc3)no2)ccc1I [96a]	failed to show activity
Oc1ccccc1-c1nc(-c2ccc(Oc3ccccc3)cc2)no1 [97a]	failed to show activity
FC(F)(F)c1ccc(Oc2ccc(-c3noc(-c4cc[nH]n4)n3)cc2)cc1 [102b]	No activity
CCCCNc1c[nH]nc1-c1nc(-c2ccc(Oc3ccc(C(F)(F)F)cc3)cc2)no1 [104b]	did not extend
CC(C)CNc1c[nH]nc1-c1nc(-c2ccc(Oc3ccc(C(F)(F)F)cc3)cc2)no1 [105b]	did not extend
FC(F)(F)c1ccc(Oc2ccc(-c3noc(-c4n[nH]cc4NC4CCCCC4)n3)cc2)cc1 [106b]	did not extend
FC(F)(F)c1ccc(Oc2ccc(-c3noc(-c4n[nH]cc4NC4CCCC4)n3)cc2)cc1 [107b]	did not extend
O=C(Nc1c[nH]nc1-c1nc(-c2ccc(Oc3ccc(C(F)(F)F)cc3)cc2)no1)c1ccccc1 [108b]	did not extend
O=C(Nc1c[nH]nc1-c1nc(-c2ccc(Oc3ccc(C(F)(F)F)cc3)cc2)no1)c1ccccn1 [109b]	did not extend
O=c1[nH]c(-c2ccc(Oc3ccccc3)cc2)no1 [112a]	abolishes activity
Cc1nc(-c2ccc(Oc3ccccc3)cc2)no1 [113a]	abolishes activity
c1ccc(Oc2ccc(-c3noc(-c4ccncc4)n3)cc2)cc1 [114a]	generally abolish antibacterial activity
[O-][n+]1ccc(-c2nc(-c3ccc(Oc4ccccc4)cc3)no2)cc1 [115a]	generally abolish antibacterial activity
FC(F)(F)c1ccc(Oc2ccc(-c3noc(-c4nc[nH]n4)n3)cc2)cc1 [116b]	generally abolish antibacterial activity
FC(F)(F)c1ccc(Oc2ccc(-c3noc(-c4cn[nH]n4)n3)cc2)cc1 [117b]	generally abolish antibacterial activity
CCn1ccc(-c2nc(-c3ccc(Oc4ccc(F)cc4)cc3)no2)n1 [118c]	No activity
Oc1ccc(-c2nc(-c3ccc(Oc4ccc(C(F)(F)F)cc4)cc3)no2)cn1 [120b]	No activity
Nc1cc(-c2nc(-c3ccc(Oc4ccc(C(F)(F)F)cc4)cc3)no2)cnc1O [121b]	No activity
Nc1cncc(-c2nc(-c3ccc(Oc4ccc(C(F)(F)F)cc4)cc3)no2)c1 [122b]	No activity
Nc1cncc(-c2nc(-c3ccc(Oc4ccc(F)cc4)cc3)no2)c1 [122c]	No activity
FC(F)(F)c1ccc(Oc2ccc(-c3noc(-c4n[nH]c5ccccc45)n3)cc2)cc1 [123b]	No activity
FC(F)(F)c1ccc(Oc2ccc(-c3noc(-c4c[nH]c5ncccc45)n3)cc2)cc1 [125b]	No activity
Nc1c[nH]c(-c2nc(-c3ccc(Oc4ccc(F)cc4)cc3)no2)c1 [126c]	generally abolish antibacterial activity
Fc1ccc(Oc2ccc(-c3noc(-c4cc[nH]c4)n3)cc2)cc1 [127c]	generally abolish antibacterial activity

Same assay, conditions: Staphylococcus aureus, ATCC29213|MSSA

MIC [µg/mL]	Molecule
≤ 1	Brc1c[nH]nc1-c1nc(-c2ccc(Oc3ccccc3)cc2)no1 [61a]
